Publication PMC4467398, “Preclinical antitumor activity of ST7612AA1: a new oral thiol-based histone deacetylase (HDAC) inhibitor” (Oncotarget, 2014)

Test system: DOHH2 and TMD8 DLBCL cells
Assay: Gene expression profiling (HumanHT-12 v4 BeadChip, limma), ST7612AA1 300 nM 8 hrs vs DMSO
Format: cell-based, human
[1] = 300 nM, 8 hours, fold change > 1.5, adjusted p-value < 0.005

Compound: CC(=O)SCCCCC[C@H](NC(=O)[C@H]1CCC(=O)N1)C(=O)Nc1ccccc1 [ST7612AA1]
- log ratio YPEL5 (probe ILMN_1711069) (300 nM 8 hrs vs DMSO): 6.99E-01
- log ratio YRDC (ILMN_2061732) (300 nM 8 hrs vs DMSO): -8.81E-01
- log ratio ZBTB42 (ILMN_3239445) (300 nM 8 hrs vs DMSO): 6.62E-01
- log ratio ZDHHC8 (probe ILMN_1789492) (300 nM 8 hrs vs DMSO): 8.85E-01
- log ratio ZFP161 (ILMN_1772522) (300 nM 8 hrs vs DMSO): -5.98E-01
- log ratio ZFX (ILMN_1687484) (300 nM 8 hrs vs DMSO): -6.10E-01
- log ratio ZMAT3 (ILMN_1654262) (300 nM 8 hrs vs DMSO): 5.95E-01
- log ratio ZMYND11 (ILMN_1754234) (300 nM 8 hrs vs DMSO): -1.27E+00
- log ratio ZNF385A (ILMN_1786722) (300 nM 8 hrs vs DMSO): 6.67E-01
- log ratio ZNF532 (ILMN_1731358) (300 nM 8 hrs vs DMSO): -8.77E-01
- log ratio ZNF689 (ILMN_1759008) (300 nM 8 hrs vs DMSO): -8.10E-01
- log ratio ZNF692 (ILMN_1800750) (300 nM 8 hrs vs DMSO): -5.98E-01
- log ratio ZNF775 (probe ILMN_1691702) (300 nM 8 hrs vs DMSO): 7.39E-01
- log ratio ZNF791 (ILMN_1758105) (300 nM 8 hrs vs DMSO): 6.65E-01
- log ratio ZNHIT1 (ILMN_1741491) (300 nM 8 hrs vs DMSO): 6.13E-01
- log ratio ZNRD1 (ILMN_1692486) (300 nM 8 hrs vs DMSO): -8.14E-01
- log ratio ZNRD1 (ILMN_2398587) (300 nM 8 hrs vs DMSO): -8.04E-01
- log ratio ZSCAN16 (ILMN_1809566) (300 nM 8 hrs vs DMSO): 6.84E-01
- log ratio ZZZ3 (ILMN_1653618) (300 nM 8 hrs vs DMSO): -7.87E-01
- log ratio probe ILMN_1862217 (no symbol) (300 nM 8 hrs vs DMSO): 6.82E-01
- log ratio probe ILMN_1865056 (no symbol) (300 nM 8 hrs vs DMSO): 5.95E-01
- log ratio probe ILMN_1880086 (no symbol) (300 nM 8 hrs vs DMSO): 6.47E-01
- log ratio probe ILMN_1886515 (no symbol given) (300 nM 8 hrs vs DMSO): -8.79E-01
- number of genes down-regulated [1]: 563 genes
- number of genes up-regulated [1]: 674 genes
- AveExpr.ST7612 (2000-08-31 ILMN_1776157): 9.23E-01
- log ratio (2000-08-31 ILMN_1776157): 9.23E-01
- AveExpr.ST7612 (ABHD8 ILMN_1712707): 9.18E-01
- log ratio (ABHD8 ILMN_1712707): 9.18E-01
- AveExpr.ST7612 (ACBD7 ILMN_1726388): 1.07E+00
- log ratio (ACBD7 ILMN_1726388): 1.07E+00
- AveExpr.ST7612 (ADRB2 ILMN_1695590): 1.02E+00
- log ratio (ADRB2 ILMN_1695590): 1.02E+00
- AveExpr.ST7612 (ANG ILMN_1760727): 1.06E+00
- log ratio (ANG ILMN_1760727): 1.06E+00
- AveExpr.ST7612 (ANKRD13A ILMN_1689908): 1.03E+00
- log ratio (ANKRD13A ILMN_1689908): 1.03E+00
- AveExpr.ST7612 (ATP6V0D1 ILMN_1795826): 1.00E+00
- log ratio (ATP6V0D1 ILMN_1795826): 1.00E+00
- AveExpr.ST7612 (ATP6V1A ILMN_1711516): 9.54E-01
- log ratio (ATP6V1A ILMN_1711516): 9.54E-01
- AveExpr.ST7612 (BAG3 ILMN_1659766): 1.06E+00
- log ratio (BAG3 ILMN_1659766): 1.06E+00
- AveExpr.ST7612 (BLVRA ILMN_1691436): 1.07E+00
- log ratio (BLVRA ILMN_1691436): 1.07E+00
- AveExpr.ST7612 (BMP6 ILMN_1747650): 1.06E+00
- log ratio (BMP6 ILMN_1747650): 1.06E+00
- AveExpr.ST7612 (C9orf95 ILMN_1674650): 9.57E-01
- log ratio (C9orf95 ILMN_1674650): 9.57E-01
- AveExpr.ST7612 (C16orf93 ILMN_2179726): 9.06E-01
- log ratio (C16orf93 ILMN_2179726): 9.06E-01
- AveExpr.ST7612 (CA2 ILMN_1662795): 1.03E+00
- log ratio (CA2 ILMN_1662795): 1.03E+00
- AveExpr.ST7612 (CBLB ILMN_1685580): 9.03E-01
- log ratio (CBLB ILMN_1685580): 9.03E-01
- AveExpr.ST7612 (CLEC16A ILMN_1781752): 1.06E+00
- log ratio (CLEC16A ILMN_1781752): 1.06E+00
- AveExpr.ST7612 (CPNE3 ILMN_1773576): 9.17E-01
- log ratio (CPNE3 ILMN_1773576): 9.17E-01
- AveExpr.ST7612 (CRIP2 ILMN_1694432): 1.09E+00
- log ratio (CRIP2 ILMN_1694432): 1.09E+00
- AveExpr.ST7612 (DENND5A ILMN_1785356): 1.07E+00
- log ratio (DENND5A ILMN_1785356): 1.07E+00
- AveExpr.ST7612 (DENND5A ILMN_3245413): 1.02E+00
- log ratio (DENND5A ILMN_3245413): 1.02E+00
- AveExpr.ST7612 (DNMT3B ILMN_2328972): 1.03E+00
- log ratio (DNMT3B ILMN_2328972): 1.03E+00
- AveExpr.ST7612 (EFNA1 ILMN_2371055): 1.05E+00
- log ratio (EFNA1 ILMN_2371055): 1.05E+00
- AveExpr.ST7612 (EXTL2 ILMN_1797950): 1.08E+00
- log ratio (EXTL2 ILMN_1797950): 1.08E+00
- AveExpr.ST7612 (FAM46C ILMN_1713266): 1.07E+00
- log ratio (FAM46C ILMN_1713266): 1.07E+00
- AveExpr.ST7612 (FAM89B ILMN_1804117): 1.06E+00
- log ratio (FAM89B ILMN_1804117): 1.06E+00
